Experimental data: ChEMBL document CHEMBL4507286 (2021)

Columns and labels:
[1] = biological target: Ephrin type-A receptor 5 (Homo sapiens) (UniProt P54756)
[2] = biological target: Vascular endothelial growth factor receptor 3 (Homo sapiens) (UniProt P35916)
[3] = biological target: Ephrin type-B receptor 1 (Homo sapiens) (UniProt P54762)
[4] = biological target: Serine/threonine-protein kinase MARK2 (Homo sapiens, UniProt Q7KZI7)
[5] = biological target: Rhodopsin kinase GRK1 (Homo sapiens) (UniProt Q15835)
[6] = biological target: Cytoplasmic tyrosine-protein kinase BMX (Homo sapiens) (UniProt P51813)
[7] = biological target: Myotonin-protein kinase (Homo sapiens) (UniProt Q09013)
[8] = biological target: Death-associated protein kinase 3 (Homo sapiens) (UniProt O43293)
[9] = test system: Hepatocyte growth factor receptor (Homo sapiens), P08581 [Y1235D]
[10] = biological target: Cyclin-dependent kinase-like 2 (Homo sapiens) (UniProt Q92772)
[11] = biological target: Tyrosine-protein kinase JAK1 (Homo sapiens) (UniProt P23458)
[12] = biological target: Mitogen-activated protein kinase 1 (Homo sapiens, UniProt P28482)
[13] = biological target: Serine/threonine-protein kinase TNNI3K (Homo sapiens) (UniProt Q59H18)
[14] = biological target: Serine/threonine-protein kinase ULK1 (Homo sapiens) (UniProt O75385)
[15] = biological target: Tyrosine-protein kinase receptor UFO (Homo sapiens) (UniProt P30530)
[16] = biological target: Serine/threonine-protein kinase 25 (Homo sapiens) (UniProt O00506)
[17] = biological target: Phosphatidylinositol 4,5-bisphosphate 3-kinase catalytic subunit beta isoform (Homo sapiens) (UniProt P42338)
[18] = biological target: Cyclin-dependent kinase-like 3 (Homo sapiens) (UniProt Q8IVW4)
[19] = biological target: 5-hydroxytryptamine receptor 5A (Homo sapiens) (UniProt P47898); settings: Compound concentration 10.0 uM
[20] = biological target: Mitogen-activated protein kinase 8 (Homo sapiens) (UniProt P45983)
[21] = biological target: Phosphatidylinositol 4,5-bisphosphate 3-kinase catalytic subunit alpha isoform (Homo sapiens) (UniProt P42336)
[22] = biological target: Mitogen-activated protein kinase kinase kinase 4 (Homo sapiens) (UniProt Q9Y6R4)
[23] = biological target: Platelet-derived growth factor receptor beta (Homo sapiens) (UniProt P09619)
[24] = biological target: MAP kinase-interacting serine/threonine-protein kinase 1 (Homo sapiens) (UniProt Q9BUB5)
[25] = biological target: Receptor-interacting serine/threonine-protein kinase 1 (Homo sapiens) (UniProt Q13546)
[26] = biological target: Phosphatidylinositol 5-phosphate 4-kinase type-2 beta (Homo sapiens) (UniProt P78356)
[27] = biological target: Cyclin-dependent kinase 4 (Homo sapiens) (UniProt P11802)
[28] = biological target: TGF-beta receptor type-1 (Homo sapiens) (UniProt P36897)
[29] = biological target: Sodium-dependent noradrenaline transporter (Homo sapiens) (UniProt P23975); settings: Compound concentration 10.0 uM
[30] = biological target: Dual specificity protein kinase CLK1 (Homo sapiens) (UniProt P49759)
[31] = biological target: Epidermal growth factor receptor (Homo sapiens) (UniProt P00533)
[32] = test system: Tyrosine-protein kinase ABL1 (Homo sapiens), P00519 [F317I]
[33] = biological target: Ribosomal protein S6 kinase alpha-3 (Homo sapiens) (UniProt P51812)
[34] = test system: Mast/stem cell growth factor receptor Kit (Homo sapiens), P10721 [V559D,T670I]
[35] = biological target: Mu-type opioid receptor (Homo sapiens) (UniProt P35372); settings: Compound concentration 10.0 uM
[36] = biological target: Activated CDC42 kinase 1 (Homo sapiens) (UniProt Q07912)
[37] = biological target: Protein-tyrosine kinase 2-beta (Homo sapiens) (UniProt Q14289)
[38] = biological target: Serine/threonine-protein kinase/endoribonuclease IRE1 (Homo sapiens) (UniProt O75460)
[39] = biological target: Receptor-interacting serine/threonine-protein kinase 4 (Homo sapiens) (UniProt P57078)
[40] = biological target: Mitogen-activated protein kinase kinase kinase 9 (Homo sapiens) (UniProt P80192)
[41] = biological target: 5-hydroxytryptamine receptor 1A (Homo sapiens) (UniProt P08908); settings: Compound concentration 10.0 uM
[42] = biological target: Receptor-interacting serine/threonine-protein kinase 2 (Homo sapiens) (UniProt O43353)
[43] = biological target: Non-receptor tyrosine-protein kinase TYK2 (Homo sapiens) (UniProt P29597)
[44] = biological target: Serine/threonine-protein kinase mTOR (Homo sapiens) (UniProt P42345)
[45] = biological target: Proto-oncogene tyrosine-protein kinase ROS (Homo sapiens) (UniProt P08922)
[46] = Compound concentration 1000.0 nM
[47] = Compound concentration 100.0 nM

Sequence of Mu-type opioid receptor (Homo sapiens) (P35372 whole entry): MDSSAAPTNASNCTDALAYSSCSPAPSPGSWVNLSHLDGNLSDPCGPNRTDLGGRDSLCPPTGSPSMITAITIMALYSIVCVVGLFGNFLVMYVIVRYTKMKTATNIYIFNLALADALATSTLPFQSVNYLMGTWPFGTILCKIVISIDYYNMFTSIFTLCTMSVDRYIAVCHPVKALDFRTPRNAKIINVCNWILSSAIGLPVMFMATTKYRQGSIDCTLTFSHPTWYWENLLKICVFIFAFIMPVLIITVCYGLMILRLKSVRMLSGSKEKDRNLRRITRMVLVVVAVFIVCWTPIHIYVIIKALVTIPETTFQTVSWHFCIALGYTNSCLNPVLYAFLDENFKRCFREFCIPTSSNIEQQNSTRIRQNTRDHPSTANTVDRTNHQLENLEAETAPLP
Sequence of Tyrosine-protein kinase ABL1 (Homo sapiens), P00519 [F317I] (P00519 whole entry F317I): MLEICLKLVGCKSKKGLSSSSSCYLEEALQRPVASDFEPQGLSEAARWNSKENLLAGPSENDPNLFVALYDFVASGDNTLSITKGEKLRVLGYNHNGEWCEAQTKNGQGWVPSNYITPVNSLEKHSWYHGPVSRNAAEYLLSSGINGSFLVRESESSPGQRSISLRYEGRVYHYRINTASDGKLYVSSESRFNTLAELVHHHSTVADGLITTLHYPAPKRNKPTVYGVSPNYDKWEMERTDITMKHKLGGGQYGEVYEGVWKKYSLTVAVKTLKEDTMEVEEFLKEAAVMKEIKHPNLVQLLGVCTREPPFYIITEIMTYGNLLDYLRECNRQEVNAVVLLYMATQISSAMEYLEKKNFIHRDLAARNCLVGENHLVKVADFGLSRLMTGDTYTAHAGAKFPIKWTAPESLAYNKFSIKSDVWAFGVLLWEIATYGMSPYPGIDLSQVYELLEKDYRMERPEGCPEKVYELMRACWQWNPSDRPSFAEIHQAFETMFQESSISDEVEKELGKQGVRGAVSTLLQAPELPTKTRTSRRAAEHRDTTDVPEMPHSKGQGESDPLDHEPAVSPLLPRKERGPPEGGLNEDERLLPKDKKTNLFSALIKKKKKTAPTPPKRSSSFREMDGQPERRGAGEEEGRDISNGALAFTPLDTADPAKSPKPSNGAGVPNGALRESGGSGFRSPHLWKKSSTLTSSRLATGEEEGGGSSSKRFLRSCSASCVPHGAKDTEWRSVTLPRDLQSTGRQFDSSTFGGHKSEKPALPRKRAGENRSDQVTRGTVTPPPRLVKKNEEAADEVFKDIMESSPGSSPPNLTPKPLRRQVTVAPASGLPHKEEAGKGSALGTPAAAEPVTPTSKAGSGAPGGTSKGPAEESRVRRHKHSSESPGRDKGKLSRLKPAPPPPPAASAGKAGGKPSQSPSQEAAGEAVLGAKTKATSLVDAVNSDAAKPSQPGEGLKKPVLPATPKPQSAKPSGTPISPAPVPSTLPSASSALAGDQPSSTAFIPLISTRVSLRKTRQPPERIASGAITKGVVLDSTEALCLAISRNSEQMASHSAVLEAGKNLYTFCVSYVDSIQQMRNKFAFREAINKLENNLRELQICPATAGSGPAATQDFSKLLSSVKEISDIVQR
Sequence of Cyclin-dependent kinase-like 2 (Homo sapiens) (Q92772 whole entry): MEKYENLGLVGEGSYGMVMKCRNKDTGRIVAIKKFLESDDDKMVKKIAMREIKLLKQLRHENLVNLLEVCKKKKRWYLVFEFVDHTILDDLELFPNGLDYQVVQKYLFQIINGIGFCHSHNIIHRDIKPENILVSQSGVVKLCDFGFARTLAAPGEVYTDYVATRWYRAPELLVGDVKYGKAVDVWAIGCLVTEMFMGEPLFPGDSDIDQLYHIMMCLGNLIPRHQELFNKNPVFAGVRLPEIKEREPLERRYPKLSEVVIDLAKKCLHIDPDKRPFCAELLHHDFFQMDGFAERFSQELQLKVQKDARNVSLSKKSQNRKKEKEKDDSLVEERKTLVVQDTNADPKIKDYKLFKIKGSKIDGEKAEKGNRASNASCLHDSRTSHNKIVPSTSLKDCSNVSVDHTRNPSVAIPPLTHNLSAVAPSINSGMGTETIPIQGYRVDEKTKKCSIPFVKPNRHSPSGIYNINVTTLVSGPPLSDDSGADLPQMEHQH
Sequence of Non-receptor tyrosine-protein kinase TYK2 (Homo sapiens) (P29597 whole entry): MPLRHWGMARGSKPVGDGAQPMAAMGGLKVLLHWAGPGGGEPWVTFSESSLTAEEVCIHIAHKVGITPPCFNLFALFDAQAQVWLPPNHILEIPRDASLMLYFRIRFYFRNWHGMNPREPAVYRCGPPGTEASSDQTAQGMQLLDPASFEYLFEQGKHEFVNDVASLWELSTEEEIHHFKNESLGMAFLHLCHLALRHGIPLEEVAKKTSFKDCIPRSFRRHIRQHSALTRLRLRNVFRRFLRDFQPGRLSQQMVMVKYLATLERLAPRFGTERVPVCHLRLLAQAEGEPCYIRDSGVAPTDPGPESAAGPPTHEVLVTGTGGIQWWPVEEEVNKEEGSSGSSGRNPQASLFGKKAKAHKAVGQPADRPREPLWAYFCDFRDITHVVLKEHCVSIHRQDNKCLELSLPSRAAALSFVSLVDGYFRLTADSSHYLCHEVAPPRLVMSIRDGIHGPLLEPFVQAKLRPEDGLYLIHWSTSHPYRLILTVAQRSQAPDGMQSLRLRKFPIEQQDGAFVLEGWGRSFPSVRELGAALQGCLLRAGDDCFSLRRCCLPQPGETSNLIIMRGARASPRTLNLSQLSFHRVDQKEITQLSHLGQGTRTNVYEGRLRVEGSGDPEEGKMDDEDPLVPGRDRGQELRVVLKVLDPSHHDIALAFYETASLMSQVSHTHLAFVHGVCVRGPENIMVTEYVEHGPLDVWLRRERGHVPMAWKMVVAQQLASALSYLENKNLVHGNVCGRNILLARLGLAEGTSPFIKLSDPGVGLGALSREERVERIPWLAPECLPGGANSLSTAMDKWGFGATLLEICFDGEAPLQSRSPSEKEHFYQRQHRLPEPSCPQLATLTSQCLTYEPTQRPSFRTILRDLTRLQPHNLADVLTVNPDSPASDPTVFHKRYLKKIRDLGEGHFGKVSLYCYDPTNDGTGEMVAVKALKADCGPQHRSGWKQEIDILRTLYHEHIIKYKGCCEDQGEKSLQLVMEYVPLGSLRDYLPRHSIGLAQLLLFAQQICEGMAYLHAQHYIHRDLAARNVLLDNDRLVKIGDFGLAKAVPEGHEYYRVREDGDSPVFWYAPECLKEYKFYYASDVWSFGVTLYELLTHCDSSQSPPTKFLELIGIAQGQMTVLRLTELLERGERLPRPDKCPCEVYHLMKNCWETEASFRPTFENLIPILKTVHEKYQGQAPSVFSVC
Sequence of Cyclin-dependent kinase-like 3 (Homo sapiens) (Q8IVW4 whole entry, looked up): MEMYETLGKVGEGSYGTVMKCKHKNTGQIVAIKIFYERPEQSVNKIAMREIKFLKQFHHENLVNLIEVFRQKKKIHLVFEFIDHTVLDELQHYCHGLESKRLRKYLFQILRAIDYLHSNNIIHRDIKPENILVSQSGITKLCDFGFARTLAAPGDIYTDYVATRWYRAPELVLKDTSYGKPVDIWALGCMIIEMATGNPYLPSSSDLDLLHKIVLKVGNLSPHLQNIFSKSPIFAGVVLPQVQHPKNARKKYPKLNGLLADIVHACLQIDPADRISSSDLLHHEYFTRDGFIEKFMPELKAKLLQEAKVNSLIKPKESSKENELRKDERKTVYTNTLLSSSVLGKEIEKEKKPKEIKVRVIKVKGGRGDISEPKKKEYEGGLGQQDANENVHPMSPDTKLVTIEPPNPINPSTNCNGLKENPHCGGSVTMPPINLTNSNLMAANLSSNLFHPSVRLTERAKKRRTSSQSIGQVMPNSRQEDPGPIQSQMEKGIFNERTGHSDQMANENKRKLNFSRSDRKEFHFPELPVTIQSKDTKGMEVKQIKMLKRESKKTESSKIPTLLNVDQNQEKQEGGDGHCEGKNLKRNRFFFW
Sequence of Serine/threonine-protein kinase TNNI3K (Homo sapiens) (Q59H18 whole entry): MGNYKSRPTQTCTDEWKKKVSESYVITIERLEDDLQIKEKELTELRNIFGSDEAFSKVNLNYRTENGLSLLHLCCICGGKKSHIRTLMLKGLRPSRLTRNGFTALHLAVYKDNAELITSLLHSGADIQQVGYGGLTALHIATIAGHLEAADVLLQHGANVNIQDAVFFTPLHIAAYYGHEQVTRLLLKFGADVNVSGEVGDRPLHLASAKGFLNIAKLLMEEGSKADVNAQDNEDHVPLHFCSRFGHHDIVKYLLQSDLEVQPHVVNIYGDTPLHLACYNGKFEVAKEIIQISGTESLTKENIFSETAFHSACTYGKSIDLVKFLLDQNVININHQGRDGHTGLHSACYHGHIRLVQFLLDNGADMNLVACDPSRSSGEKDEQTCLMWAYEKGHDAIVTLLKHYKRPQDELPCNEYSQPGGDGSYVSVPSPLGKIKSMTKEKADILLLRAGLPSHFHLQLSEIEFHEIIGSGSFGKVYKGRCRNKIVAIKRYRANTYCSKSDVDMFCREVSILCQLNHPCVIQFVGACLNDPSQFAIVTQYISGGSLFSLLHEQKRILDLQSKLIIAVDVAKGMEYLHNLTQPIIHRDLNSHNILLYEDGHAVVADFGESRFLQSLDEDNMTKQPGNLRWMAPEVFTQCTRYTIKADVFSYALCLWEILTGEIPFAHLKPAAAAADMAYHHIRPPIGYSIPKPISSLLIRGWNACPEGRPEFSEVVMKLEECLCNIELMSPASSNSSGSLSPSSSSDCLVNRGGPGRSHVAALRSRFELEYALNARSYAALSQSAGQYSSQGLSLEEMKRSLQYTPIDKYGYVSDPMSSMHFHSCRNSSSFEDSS
Sequence of Cyclin-dependent kinase 4 (Homo sapiens) (P11802 whole entry): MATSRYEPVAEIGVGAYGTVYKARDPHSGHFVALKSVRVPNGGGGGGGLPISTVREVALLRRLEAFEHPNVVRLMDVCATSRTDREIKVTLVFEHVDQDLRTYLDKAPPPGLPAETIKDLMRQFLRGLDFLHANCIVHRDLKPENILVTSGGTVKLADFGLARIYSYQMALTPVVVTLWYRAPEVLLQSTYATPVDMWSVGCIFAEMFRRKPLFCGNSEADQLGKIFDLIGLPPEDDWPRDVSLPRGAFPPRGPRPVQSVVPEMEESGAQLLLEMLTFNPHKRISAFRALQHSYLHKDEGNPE

## C[C@H](NC(=O)Nc1cc2[nH]ncc2c(CO)n1)c1ccccn1 [ERKi-NC]
[1]; [46]
  residual activity: 100%
[2]; [46]
  residual activity: 100%
[3]; [46]
  residual activity: 100%
[4]; [46]
  residual activity: 100%
[5]; [46]
  residual activity: 59.5%
[6]; [46]
  residual activity: 91.7%
[7]; [46]
  residual activity: 100%
[8]; [46]
  residual activity: 100%
[9]; [46]
  residual activity: 100%
[10]; [46]
  residual activity: 100%
[11]; [46]
  residual activity: 42.4%
[12]; [46]
  residual activity: 50%
[13]; [46]
  residual activity: 100%
[14]; [46]
  residual activity: 100%
[15]; [46]
  residual activity: 100%
[16]; [46]
  residual activity: 100%
[17]; [46]
  residual activity: 100%
[18]; [46]
  residual activity: 100%
[19]
  inhibition: 9.46%
[20]; [46]
  residual activity: 63.3%
[21]; [46]
  residual activity: 100%
[22]; [46]
  residual activity: 53.1%
[23]; [46]
  residual activity: 100%
[24]; [46]
  residual activity: 100%
[25]; [46]
  residual activity: 100%
[26]; [46]
  residual activity: 99.5%
[27]; [46]
  residual activity: 100%
[28]; [46]
  residual activity: 60.8%
[29]
  inhibition: 25.4%
[30]; [46]
  residual activity: 94.4%
[31]; [46]
  residual activity: 100%
[32]; [46]
  residual activity: 100%
[33]; [46]
  residual activity: 79.5%
[34]; [46]
  residual activity: 85.5%
[35]
  inhibition: -6.59%
[36]; [46]
  residual activity: 100%
[37]; [46]
  residual activity: 100%
[38]; [46]
  residual activity: 100%
[39]; [46]
  residual activity: 100%
[40]; [46]
  residual activity: 100%
[41]
  inhibition: 20%
[42]; [46]
  residual activity: 77%
[43]; [46]
  residual activity: 100%
[44]; [46]
  residual activity: 93.1%
[45]; [46]
  residual activity: 85%

## C[C@@H](NC(=O)Nc1cc2[nH]ncc2c(CO)n1)c1ccccc1 [ERKi]
[1]; [47]
  residual activity: 87.9%
[2]; [47]
  residual activity: 100%
[3]; [47]
  residual activity: 91.1%
[4]; [47]
  residual activity: 100%
[5]; [47]
  residual activity: 78.3%
[6]; [47]
  residual activity: 94.3%
[7]; [47]
  residual activity: 80.5%
[8]; [47]
  residual activity: 77.4%
[9]; [47]
  residual activity: 90.5%
[10]; [47]
  residual activity: 81%
[11]; [47]
  residual activity: 77%
[12]; [47]
  residual activity: 1%
[13]; [47]
  residual activity: 94.6%
[14]; [47]
  residual activity: 48.6%
[15]; [47]
  residual activity: 77.9%
[16]; [47]
  residual activity: 61.5%
[17]; [47]
  residual activity: 81.5%
[18]; [47]
  residual activity: 95.6%
[19]
  inhibition: 1.39%
[20]; [47]
  residual activity: 93.7%
[21]; [47]
  residual activity: 86%
[22]; [47]
  residual activity: 100%
[23]; [47]
  residual activity: 95.8%
[24]; [47]
  residual activity: 89.6%
[25]; [47]
  residual activity: 100%
[26]; [47]
  residual activity: 45%
[27]; [47]
  residual activity: 83.1%
[28]; [47]
  residual activity: 100%
[29]
  inhibition: -9.99%
[30]; [47]
  residual activity: 72.6%
[31]; [47]
  residual activity: 80.6%
[32]; [47]
  residual activity: 100%
[33]; [47]
  residual activity: 85.4%
[34]; [47]
  residual activity: 83.7%
[35]
  inhibition: 6.82%
[36]; [47]
  residual activity: 94.8%
[37]; [47]
  residual activity: 75%
[38]; [47]
  residual activity: 61.6%
[39]; [47]
  residual activity: 76%
[40]; [47]
  residual activity: 95.7%
[41]
  inhibition: -1.87%
[42]; [47]
  residual activity: 90.3%
[43]; [47]
  residual activity: 97.8%
[44]; [47]
  residual activity: 71.8%
[45]; [47]
  residual activity: 100%
